Laboratory results reported in patent US20050288371A1, “Treatment of neuropathic pain, fibromyalgia or rheumatoid arthritis” (H. Lundbeck A/S, priority 2004, published 2005).

Legend:
[1] = background statement on known drugs; cited from earlier work
formalin pain model = assay type: in vivo; conditions: s.c. test drug 30 min or 2 h before the test
Text: The formalin pain model is a well-established animal model of persistent somatic pain (Dubuisson, D. and Dennis, S. G. Pain 4, 1977, 161-174). It has been described as a model of clinical inflammatory pain (Tjølsen, A. and Hole, K, In: Dickenson, A. H. and Besson, J.-M. R., Editors, 1997, The Pharmacology of Pain, Springer-Verlag, Berlin, 1-20). Formalin injected subcutaneously in a hind paw produces initially a local stimulation of the nociceptors; this is referred to as phase 1. This is followed by inflammatory processes and nerve sensitization (phase 2). The latter phase models the neuropathic pain condition. A number of drugs are active in the model, e.g. morphine and in particular antiepileptic drugs (e.g. gabapentin, lamotrigine, carbamazepine) that have shown beneficial effects in clinical neuropathic states. However, these treatments are accompanied by troublesome side effects. The non-steroid antiinflammatory drugs (NSAIDs) that are used for treatment of inflammatory processes in tissue and have relatively weak effects on neuropathic pain conditions have weak activity in the formalin model.
Fifty microliters of 2.5% formalin were administered subcutaneously (s.c.) into the plantar region of the right hind-paw. […] The total time the animal spent licking, biting or shaking the injected paw was recorded. […]

| Compound | activity in the formalin model [1] | inhibition of the pain response in phase 1 (formalin pain model; phase 1 (0-5 min after formalin injection)) | inhibition of the pain response in phase 2 (formalin pain model; phase 2 (20-30 min after formalin injection)) |
| --- | --- | --- | --- |
| NC(=O)N1c2ccccc2C=Cc2ccccc21 [carbamazepine] | active | – | – |
| NCC1(CC(=O)O)CCCCC1 [gabapentin] | active | – | – |
| Oc1noc2c1CCNC2 [gaboxadol] | – | potent and dose dependent inhibition of the pain response in phase 1 | potently inhibited the pain response in phase 2, in a dose dependent manner |
| Nc1nnc(-c2cccc(Cl)c2Cl)c(N)n1 [lamotrigine] | active | – | – |
| CN1CC[C@]23c4c5ccc(O)c4O[C@H]2[C@@H](O)C=C[C@H]3[C@H]1C5 [morphine] | active | – | – |
